Tests used:
[1] = test system: TGFβ1-induced fibulin-1 ECM deposition in primary human lung IPF-fibroblasts (phLFs); experiment: Assessing N23P activity in inhibiting ECM deposition in IPF-fibroblasts (fibulin-1 MFI); assay type: cell-based; settings: Homo sapiens, 72 h, 10 μM, TGFβ1 1 ng/ml, MFI, three different IPF-phLFs (n=3)
Method: phLFs were cultured in DMEM F-12 medium with 20% fetal bovine serum (FBS) and antibiotic supplement as mentioned above. Cells were seeded with 6000 cells/well in 384-well CellCarrier plates (Perkin Elmer, Cat #6007550). Following overnight incubation, cells were starved in serum-reduced medium (1% FBS with 0.1 mM 2-phosphoascorbate (Sigma, Cat #49752)) for 24 h. Afterwards, cells were treated with TGFβ1 (1 ng/ml) or vehicle, and additionally small molecules or appropriate vehicle controls were added. After 72 h of incubation, medium was changed for starving medium with 1 μg/mL AlexaFluor-488 fluorophore conjugated anti-collagen-type-5 antibodies (SantaCruz, Clone C-5, Cat #sc-166155 AF488), 0.66 μg/mL AlexaFluor-555 fluorophore conjugated anti-collagen-type-1 antibodies (Rockland, Cat #600-401-103-0.1), and 1 μg/mL AlexaFluor-637 fluorophore conjugated anti-fibulin 1 antibodies (SantaCruz, Clone C-5, Cat #sc-25281 AF647) and 1 μg/mL Hoechst H33342 (Sigma). Fluorescenceconjugation of the collagen type 1 antibody was done by using the AlexaFluor-555 Protein Labeling Kit (Invitrogen, Cat #A20174) according to manufacturer's instructions. Labeling efficacy was controlled by photometrical means.
Following four hours of incubation, cells were washed three times with PBS and fixed with paraformaldehyde (PFA). For automated liquid handling in 384 well plates, an INTEGRA Assist Plus (INTEGRA, Zizers, Switzerland) equipped with an INTEGRA Viaflo 1I pipette (INTEGRA, Zizers, Switzerland, Cat #4642), 125 μL GripTips™ pipette tips (INTEGRA, Zizers, Switzerland, Cat #6464) and sterile reagent reservoirs (INTEGRA, Cat #4311) were applied. All automated pipetting steps with the INTEGRA Assist Plus were performed at 9.5 μL/s in order to ensure proper integrity and attachment of the deposited ECM to the culturing surface within the wells of the 384-well plates. During cell seeding the automated liquid handling was performed at 89.3 μL/s. Removal of liquids from the well-plates was done by manually inverting the plates.
Following fixation, the automated imaging was achieved by using aconfocal laser scanning microscope (LSM710, Zeiss) with automated focus detection for three-dimensional image acquisition (1024 px×1024 px×9 px which equals a dimension of 1417 μm×1417 μm×16 μm). For post-acquisition analysis images were imported into IMARIS software (Bitplane) and volume detection or alternatively quantification of the mean fluorescence intensity, as well as Hoechst-stained cell nuclei were automatically counted by using Imaris' spot detection algorithm.
Cells were seeded with 6000 cells/well in 384-well CellCarrier plates. After overnight incubation, cells were starved in serum-reduced medium (1% FBS with 0.1 mM 2-phosphoascorbate for 24 h). Then, phLFs were treated with TGFβ1 (1 ng/ml) or vehicle, and incubated together with synthesized N23Ps (10 μM) or appropriate vehicle controls. After 72 h of incubation, medium was changed for starvation medium with 1 μg/mL AlexaFluor-637 fluorophore conjugated anti-fibulin 1 antibodies (SantaCruz, Clone C-5, Cat #sc-25281 AF647) and 1 μg/mL Hoechst H33342 (Sigma). Following four hours of incubation, cells were washed three times with PBS and fixed with paraformaldehyde (PFA). Following fixation, the automated imaging was achieved by using a confocal laser scanning microscope (LSM710, Zeiss) with automated focus detection for three-dimensional image acquisition (1024 px×1024 px×9 px which equals a dimension of 1417 μm×1417 μm×16 μm). For post-acquisition analysis images were imported into IMARIS software (Bitplane) and quantified for the mean fluorescence intensity, as well as Hoechst-stained cell nuclei were automatically counted by using Imaris' spot detection algorithm.
Assessment of ECM inhibition I: Mean fluorescence intensity (MFI) values represented the degree of fibulin-1 ECM deposition in three different IPF-phLFs (n=3). […]

PAI-1/SERPINE1 = experiment: Human precision cut lung slices (PCLS) with fibrotic cocktail: immunoblot of secreted PAI-1; assay type: cell-based; settings: living human PCLS
Method: PCLS were prepared as described before (31, 32). Shortly, PCLS were prepared from tumor-free peri-tumor tissue. The lung tissue was inflated with 3% agarose solution and solidified at 4° C. Tissue blocks were cut in μm thick PCLS using a vibration microtome Hyrax V50 (Zeiss). PCLS were cultured in DMEM F-12 medium and treated with a profibrotic cocktail, as described before (31), or vehicle, as well as with small molecules or vehicles for 7 days. After culturing and treatments, supernatants were harvested. PCLS were […] washed in PBS and protein was extracted as previously described (33). Briefly, PCLS were pooled in an Eppendorf tube and lysed in 500 μl ice-cold RIPA buffer (50 mM Tris-CI pH 7.4, 150 mM NaCl, 1% NP40, 0.25% Na-deoxycholate) containing 1× Roche complete mini protease inhibitor cocktail (Roche, Cat. #11697498001). After an incubation of 2 hours rotating at 4° C., the lung slices were removed from the lysates and the protein content was measured.
Cells were scraped off the plastic dish directly into 200 μl ice-cold RIPA buffer containing 1× Roche complete mini protease inhibitor cocktail. […] CXCL/IL-8 concentrations were determined using Human IL-8/CXCL8 DuoSet ELISA (DY208-05) according to the manufacturer's protocol.

CCCCOc1ccccc1NC(=O)/C=C/c1ccc(OC)c(OC)c1 [Example 84, (E)-N-(2-butoxyphenyl)-3-(3,4-dimethoxyphenyl)acrylamide]
inhibition at 10 µM [1]: > 90% | secreted PAI-1/SERPINE1 (PAI-1/SERPINE1): diminution of secreted pro-fibrotic PAI-1/SERPINE1

— US20240294465A1, “NOVEL ANTI-FIBROTIC DRUGS” (HELMHOLTZ ZENTRUM MUNCHEN - DEUTSCHES FORSCHUNGSZENTRUM FUR …, priority 2021, published 2024)
